Results on 13 molecules are retold here after patent US20080103191A1, “ENTACAPONE-DERIVATIVES” (priority 2006, published 2008).

Molecules are shown by their SMILES. Converted amounts (≈) assume the structure as drawn. Read-outs that look alike come from different tables or passages of the source. Where only a bound is given, the exact number is not on record here.

For orientation: Papp A→B means how fast a substance crosses the layer from the apical side. Usually chromatographic logD stands for a lipophilicity value derived from retention on a column. As a reminder, the solubility is how much of the substance goes into solution per volume.

Data set [1] is described as follows: Chemical hydrolysis stability at pH 1 and pH 7.4 (HPLC). It counts as physicochemical. The note with it: 37° C., over 12 h. The protocol: The stability of compounds of the present invention is tested at pH 1 and at pH 7.4. The testing is carried out by the following HPLC method:
Chemical hydrolysis rates t1/2 [h] of selected compounds of formula I are determined in 0.1 N HCl (pH 1) and PBS buffer (pH 7.4) solution. Solutions are prepared by dissolving an appropriate amount of compound in 0.1 N HCl and PBS buffer solution. Samples were withdrawn at designated time intervals and analysed for remaining prodrug by HPLC at 37° C. over 12 h.
Reversed phase gradient HPLC method, column YMC Pro C8, 50 mm×4.0 mm, 3 μm, Eluent A: Water:trifluoroacetic acid (100:0.5 (v/v)), Eluent B: Acetonitrile:trifluoroacetic:acid (100:0.5 (v/v)). Column temperature 30° C., Flow rate 3.0 mL/min, Detection wavelength: 220 nm
For evaluation, the peak area of the respective compound from the first injection is defined as 100% relative concentration. The peak areas of all other subsequent injections are calculated in percentage relating to this standard. (relative concentration in %). The relative concentrations are plotted in a logarithmic scale (ln) against the injection times. Based on the assumption of a first order kinetic, the rate constant and half life times (t1/2 [h]) can be calculated.

A short description of data set [2]: Permeability in Caco-2 cells, apical to basolateral. On the set-up: dose or concentration left out as unconfirmed. It counts as in vitro ADME. The note with it: human; 21d Caco-2 monolayer, apical pH 6.5 to basolateral pH 7.4, 60 minutes. The source says:
The human adenocarcinoma cell line Caco-2 is used as an in vitro system to predict oral absorption. These cells serve as a model of small bowel tissue and permeation through these cells is a predictor for gastro-intestinal absorption. Further to being a model for oral absorption, permeability in Caco-2 cells may be predictive for the blood brain barrier permeability (P. Garberg et al.; Toxicology in vitro 19 (2005); 299-334). […] The permeability in Caco-2 cells has been tested by the following method:
The permeability of selected compounds of formula I across Caco-2 (21d Caco-2-culture) monolayer in the apical to basolateral direction is investigated. Control substances were ^3H-propranolol and ^3H-mannitol.
The nominal concentration of the test items is […]. The pH value is set to 6.5 for the apical transport medium and to 7.4 for the basolateral medium. Samples are obtained following 60 minutes (120 minutes for control samples) incubation from the basolateral receiver chamber. At sampling time approximately 600 μL of each well are transferred into an eppendorf vial and stored between −12° and −30° C. until HPLC or LC-MS/MS analysis. The control substances are quantified by liquid scintillation.
(Caco-2 monolayers are a common model of the intestinal barrier.)

Data set [3] in a line: Log D (pH 7.4) by isocratic HPLC. It counts as physicochemical. The note with it: YMC Pro C18 column, phosphate buffer pH 7.4/acetonitrile 45/55. As to the method: LogD is an indicator for absorption and lipophilicity for ionized compounds under defined pH conditions and is measured by applying an isocratic HPLC Method at pH 7.4.
The log D has been tested at pH 7.4. The testing has been carried out by the following method: Isocratic HPLC method: Column YMC Pro C18, 150 mm×4.0 mm, 3 μm, Eluent Phosphate buffer pH 7.4/acetonitrile (45/55, (v/v)), Runtime 15-60 min, Flow rate 1.2 ml/min, Detection wavelength: 220 nm

Data set [4] is described as follows: Plasma stability ex vivo. It is filed as in vitro ADME. The note with it: human plasma, 37° C., read-out: t1/2 plasma. As to the method:
Plasma stability is determined in human and rat plasma ex vivo. For the determination of the plasma stability of the compounds of formula I, the test compounds were incubated with human plasma (c=5 μg/mL) at 37° C. for certain time intervals up to 60, resp. 120 min (depending on the compound). Afterwards the incubations were stopped by equivalent addition of acetonitrile for protein precipitation, and the samples were mixed and centrifuged. The supernatants were adequately diluted and analyzed by HPLC with UV detection at 305 nm.
The degradation of the compounds of formula I as well as the formation of the active drug entacapone were monitored, and the half-life times of the compounds of formula I were calculated from the obtained peak areas.

A short description of data set [5]: Solubility in 0.1 N HCl, PBS buffer, FaSSIF and FeSSIF. It is filed as physicochemical. The note with it: thermodynamic from solid, ambient temperature. The protocol:
For testing solubility, saturated solutions of selected compounds of formula I are prepared in four different systems and compared to the solubility of entacapone. The solubility is tested in 0.1 N HCl (pH 1), PBS buffer (pH 7.4) and in two simulated gastric fluids, FaSSIF at pH 6.5 (for fasting state) and FeSSIF at pH 5.0 (for fed state) at ambient temperature. The content of the FaSSIF simulated gastric fluid is as follows:
The solubility testing is carried out by the following method: An excess amount of each compound is added to a 0.1 N HCl, PBS buffer, FeSSIF and FaSSIF. The suspensions are shaken for 10 min. After centrifugation the concentration is determined by HPLC. Reversed phase gradient HPLC method, column YMC Pro C8, 50 mm×4.0 mm, 3 μm, Eluent A: Water:trifluoroacetic acid (100:0.5 (v/v)), Eluent B: Acetonitrile:trifluoroacetic:acid (100:0.5 (v/v)). Column temperature 30° C., Flow rate 3.0 mL/min, Detection wavelength: 220 nm

Setting [6] is: pH 1, 0.1 N HCl, read-out: t1/2 at pH 1 (converted).
[7] abbreviates: pH 7.4, PBS buffer, read-out: t1/2 at pH 7.4 (converted).
Where [8] appears, read: 0.1 N HCl, pH 1, simulated gastric fluid, shaken 10 min, read-out: Solubility 0.1N HCl Ph 1.0.
Where [9] appears, read: FaSSIF, pH 6.5, fassif, fasting state fluid, read-out: Solubility FaSSIF Ph 6.5.
[10] abbreviates: FeSSIF, pH 5, fessif, fed state fluid, read-out: Solubility FeSSIF Ph 5.0.
Setting [11] is: PBS buffer, pH 7.4, aqueous buffer, read-out: Solubility PBS Ph 7.4.

As for `CCN(CC)C(=O)/C(C#N)=C/c1cc(OC(=O)OC2CC3CCC2(C)C3(C)C)c(O)c([N+](=O)[O-])c1` (stereo not shown) [Compound 67, Carbonic acid 5-((E)-2-cyano-2-diethylcarbamoyl-vinyl)-2-hydroxy-3-nitro-phenyl ester 1,7,7-trimethyl-bicyclo[2.2.1]hept-2-yl ester], the half-life in data set [1] (setting [6]) was 12.8 h; in data set [1] (setting [7]) it was 14.4 h. The molecule further registered a Papp A→B at 60 min in data set [2] of 14.8 ×10⁻⁶ cm/s. For the same molecule, the chromatographic logD in data set [3] was determined as 2.8. Moreover, the half-life at 5 μg/mL in data set [4] worked out at 2.8 min.
In the case of `CCN(CC)C(=O)/C(C#N)=C/c1cc(OC(=O)OCc2ccc3c(c2)OCO3)c(O)c([N+](=O)[O-])c1` [Compound 131, Carbonic acid benzo[1,3]dioxol-5-ylmethyl ester 5-((E)-2-cyano-2-diethylcarbamoyl-vinyl)-2-hydroxy-3-nitro-phenyl ester], the solubility at 10 min was 20 µg/mL (≈ 41.4 µM) in data set [5] (setting [8]), 960 µg/mL (≈ 1990 µM) in data set [5] (setting [9]), 710 µg/mL (≈ 1470 µM) in data set [5] (setting [10]) and 970 µg/mL (≈ 2010 µM) in data set [5] (setting [11]). Further, the half-life in data set [1] (setting [6]) was 15.3 h; in data set [1] (setting [7]), 3.4 h. For the same molecule, in data set [3], the chromatographic logD came out at 0.9.
In data set [2], `CCN(CC)C(=O)COC(=O)Oc1cc(/C=C(\C#N)C(=O)N(CC)CC)cc([N+](=O)[O-])c1O` [Compound 18, Carbonic acid 5-((E)-2-cyano-2-diethylcarbamoyl-vinyl)-2-hydroxy-3-nitro-phenyl ester diethylcarbamoylmethyl ester] showed a Papp A→B at 60 min of under 5.1 ×10⁻⁶ cm/s.
`CCOC(=O)CC(C)OC(=O)Oc1cc(/C=C(\C#N)C(=O)N(CC)CC)cc([N+](=O)[O-])c1O` (stereo not shown) [Compound 34, 3-[5-((E)-2-Cyano-2-diethylcarbamoyl-vinyl)-2-hydroxy-3-nitro-phenoxycarbonyloxy]-butyric acid ethyl ester]: in data set [2], the apparent permeability from apical to basolateral (Papp A→B) at 60 min was determined as 14.6 ×10⁻⁶ cm/s.
As to `CCN(CC)CCOC(=O)Oc1cc(/C=C(\C#N)C(=O)N(CC)CC)cc([N+](=O)[O-])c1O` [Compound 55, Carbonic acid 5-((E)-2-cyano-2-diethylcarbamoyl-vinyl)-2-hydroxy-3-nitro-phenyl ester 2-diethylamino-ethyl ester], the solubility at 10 min in data set [5] (setting [8]), in data set [5] (setting [9]), in data set [5] (setting [10]) and in data set [5] (setting [11]) was over 1000 µg/mL in each case. For the same molecule, the values for the half-life in data set [1] (setting [6]) and in data set [1] (setting [7]) were 4.1 h and under 1 h, respectively. This molecule also showed a chromatographic logD in data set [3] of 1.
Take `CCN(CC)C(=O)/C(C#N)=C/c1cc(OC(=O)OC(C)(C)C(=O)OC)c(O)c([N+](=O)[O-])c1` [Compound 20, 2-[5-((E)-2-Cyano-2-diethylcarbamoyl-vinyl)-2-hydroxy-3-nitro-phenoxycarbonyloxy]-2-methyl-propionic acid methyl ester]: the Papp A→B at 60 min in data set [2] is 11.7 ×10⁻⁶ cm/s.
On the same count and under the same terms, for `CCOC(=O)C(C)(C)OC(=O)Oc1cc(/C=C(\C#N)C(=O)N(CC)CC)cc([N+](=O)[O-])c1O` [Compound 26, 2-[5-((E)-2-Cyano-2-diethylcarbamoyl-vinyl)-2-hydroxy-3-nitro-phenoxycarbonyloxy]-2-methyl-propionic acid ethyl ester] the value was under 5.1 ×10⁻⁶ cm/s.
Regarding `CCN(CC)C(=O)/C(C#N)=C/c1cc(OC(=O)OCC2COC(C)(C)O2)c(O)c([N+](=O)[O-])c1` (stereo not shown) [Compound 12, Carbonic acid 5-((E)-2-cyano-2-diethylcarbamoyl-vinyl)-2-hydroxy-3-nitro-phenyl ester 2,2-dimethyl-[1,3]dioxolan-4-ylmethyl ester], the half-life in data set [1] (setting [6]) is under 1 h; in data set [1] (setting [7]) it was 2.8 h. This molecule returned a Papp A→B at 60 min in data set [2] of 2.3 ×10⁻⁶ cm/s.
The molecule `CCCCCOC(=O)Oc1cc(/C=C(\C#N)C(=O)N(CC)CC)cc([N+](=O)[O-])c1O` [Compound 6, Carbonic acid 5-((E)-2-cyano-2-diethylcarbamoyl-vinyl)-2-hydroxy-3-nitro-phenyl ester pentyl ester] displayed a Papp A→B at 60 min in data set [2] of under 5.1 ×10⁻⁶ cm/s.
On to `CCN(CC)C(=O)/C(C#N)=C/c1cc(OC(=O)OCc2ccccc2)c(O)c([N+](=O)[O-])c1` [Compound 11, Carbonic acid benzyl ester 5-((E)-2-cyano-2-diethylcarbamoyl-vinyl)-2-hydroxy-3-nitro-phenyl ester], for which the solubility at 10 min in data set [5] (setting [8]) was 150 µg/mL (≈ 341 µM); in data set [5] (setting [9]), 80 µg/mL (≈ 182 µM); in data set [5] (setting [10]), 20 µg/mL (≈ 45.5 µM); in data set [5] (setting [11]), 280 µg/mL (≈ 637 µM). In addition, the half-life in data set [1] (setting [6]) was 3 h; in data set [1] (setting [7]), 4.1 h. In data set [3], this molecule showed a chromatographic logD of 1.6.
As to `CCN(CC)C(=O)/C(C#N)=C/c1cc(OC(=O)OC(C)c2ccccc2)c(O)c([N+](=O)[O-])c1` (stereo not shown) [Compound 137, Carbonic acid 5-((E)-2-cyano-2-diethylcarbamoyl-vinyl)-2-hydroxy-3-nitro-phenyl ester 1-phenyl-ethyl ester], the solubility at 10 min in data set [5] (setting [9]) amounted to 150 µg/mL (≈ 331 µM); in data set [5] (setting [10]) it was 20 µg/mL (≈ 44.1 µM); in data set [5] (setting [11]), 340 µg/mL (≈ 750 µM). Further, the half-life in data set [1] (setting [6]) was 7.8 h; in data set [1] (setting [7]) it was 21.4 h. Besides, in data set [3], the chromatographic logD turned out to be 2.6.
Take `C#CCCOC(=O)Oc1cc(/C=C(\C#N)C(=O)N(CC)CC)cc([N+](=O)[O-])c1O` [Compound 83, Carbonic acid but-3-ynyl ester 5-((E)-2-cyano-2-diethylcarbamoyl-vinyl)-2-hydroxy-3-nitro-phenyl ester]: the solubility at 10 min in data set [5] (setting [8]) was 10 µg/mL (≈ 24.9 µM); in data set [5] (setting [9]) it was 910 µg/mL (≈ 2270 µM); in data set [5] (setting [10]), 430 µg/mL (≈ 1070 µM); in data set [5] (setting [11]) it was 850 µg/mL (≈ 2120 µM). The half-life is 12.8 h in data set [1] (setting [6]) and 3 h in data set [1] (setting [7]). This molecule displayed an apical-to-basolateral permeability (Papp A→B) at 60 min in data set [2] of 4.9 ×10⁻⁶ cm/s. Besides, in data set [3], the chromatographic logD was 1.1.
In the case of `CCN(CC)C(=O)/C(C#N)=C/c1cc(OC(=O)OCC(=O)O)c(O)c([N+](=O)[O-])c1` [Compound 146, [5-((E)-2-Cyano-2-diethylcarbamoyl-vinyl)-2-hydroxy-3-nitro-phenoxycarbonyloxy]-acetic acid], the solubility at 10 min in data set [5] (setting [8]) was 30 µg/mL (≈ 73.6 µM); in data set [5] (setting [9]) it was 630 µg/mL (≈ 1550 µM); in data set [5] (setting [10]) it was 250 µg/mL (≈ 614 µM); in data set [5] (setting [11]) it was 830 µg/mL (≈ 2040 µM). Further, the half-life in data set [1] (setting [6]) was 11 h; in data set [1] (setting [7]) it was 12.2 h. In data set [3], this molecule returned a chromatographic logD of 1.7.
